According to ChEMBL document CHEMBL5370659 (J Med Chem, 2023):
Converted amounts (≈) assume the structure as drawn.

Tests used:
[1] = Plasma protein binding in rat; assay type: ADME, cell-free; conditions: read-out: PPB (converted)
[2] = target: T1, Tryptophan 5-hydroxylase 1 (Homo sapiens, UniProt P17752); assay: Inhibition of recombinant MBP-tagged full length human THP1 using L-Trp as substrate assessed as formation of 5-HTP by measuring fluorescent property
T1 sequence (P17752 whole entry): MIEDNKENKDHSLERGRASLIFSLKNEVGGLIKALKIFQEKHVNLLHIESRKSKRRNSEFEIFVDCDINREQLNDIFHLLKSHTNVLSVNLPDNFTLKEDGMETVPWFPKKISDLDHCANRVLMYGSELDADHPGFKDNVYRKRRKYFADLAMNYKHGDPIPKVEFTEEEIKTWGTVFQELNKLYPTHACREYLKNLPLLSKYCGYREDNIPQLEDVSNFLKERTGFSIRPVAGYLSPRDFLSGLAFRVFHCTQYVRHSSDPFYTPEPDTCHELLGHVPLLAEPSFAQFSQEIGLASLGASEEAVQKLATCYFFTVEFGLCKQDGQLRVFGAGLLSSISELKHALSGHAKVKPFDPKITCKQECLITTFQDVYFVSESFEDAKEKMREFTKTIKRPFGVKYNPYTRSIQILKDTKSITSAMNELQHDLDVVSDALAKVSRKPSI

[3] = Plasma protein binding in human; assay type: ADME, cell-free; conditions: read-out: PPB (converted)
[4] = Apparent permeability across apical to basal side in human Caco-2 cells at pH 6.5/7.4 measured at 5 uM by LC-MS/MS analysis; assay type: ADME, cell-based; conditions: Caco-2, pH 6.5
[5] = Metabolic stability in human hepatocytes assessed as intrinsic clearance; assay type: ADME, cell-based, Hepatocyte; conditions: read-out: CLH
[6] = target: T2, Tryptophan 5-hydroxylase 2 (Homo sapiens, UniProt Q8IWU9); assay: Inhibition of recombinant MBP-tagged full length human THP2 using L-Trp as substrate assessed as formation of 5-HTP by measuring fluorescent property
T2 sequence (Q8IWU9 whole entry): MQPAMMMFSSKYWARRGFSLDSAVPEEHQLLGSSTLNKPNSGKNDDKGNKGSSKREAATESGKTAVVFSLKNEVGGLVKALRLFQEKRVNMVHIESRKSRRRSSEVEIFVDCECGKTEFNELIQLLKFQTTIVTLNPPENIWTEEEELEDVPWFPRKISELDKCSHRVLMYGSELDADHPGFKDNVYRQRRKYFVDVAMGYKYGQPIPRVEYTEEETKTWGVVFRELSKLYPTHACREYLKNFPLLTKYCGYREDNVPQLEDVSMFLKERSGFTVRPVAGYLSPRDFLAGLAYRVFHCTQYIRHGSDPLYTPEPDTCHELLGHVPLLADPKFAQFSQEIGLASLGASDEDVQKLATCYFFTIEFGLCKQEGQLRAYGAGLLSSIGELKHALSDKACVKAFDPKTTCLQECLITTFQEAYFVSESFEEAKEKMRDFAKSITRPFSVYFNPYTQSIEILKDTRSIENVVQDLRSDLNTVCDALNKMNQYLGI

[7] = Apparent permeability across basal to apical side in human Caco-2 cells at pH 6.5/7.4 measured at 5 uM by LC-MS/MS analysis; assay type: ADME, cell-based; conditions: Caco-2, pH 6.5
[8] = Metabolic stability in rat hepatocytes assessed as half life; assay type: ADME, cell-based, Hepatocyte
[9] = Metabolic stability in human hepatocytes assessed as half life; assay type: ADME, cell-based, Hepatocyte
[10] = Permeability across apical to basal side in MDCK-MDR1 cells at pH 6.5/7.4 measured at 5 uM by LC-MS/MS analysis; assay type: ADME, cell-based, Canis lupus familiaris; conditions: dog, MDCK-MDR1, pH 6.5
[11] = Permeability across basal to apical side in MDCK-MDR1 cells at pH 6.5/7.4 measured at 5 uM by LC-MS/MS analysis; assay type: ADME, cell-based, Canis lupus familiaris; conditions: dog, MDCK-MDR1, pH 6.5
[12] = Aqueous solubility of the compound in pH 7.4 PBS buffer by HPLC-UV analysis; assay type: physicochemical
[13] = Solubility in simulated gastric fluid by HPLC-UV analysis; assay type: physicochemical
[14] = Solubility in simulated intestinal fluid by HPLC-UV analysis; assay type: physicochemical
[15] = Metabolic stability in rat hepatocytes assessed as intrinsic clearance; assay type: ADME, cell-based, Hepatocyte; conditions: read-out: CLH
[16] = Brain homogenate binding in mouse; assay type: ADME, tissue-based
[17] = Brain homogenate binding in rat; assay type: ADME, tissue-based

CCn1c(=O)[nH]c(=O)c2c1nc(Cc1cn3cc(C)sc3n1)n2CC1CC1
fraction unbound [1]: 0.17
IC50 [2]: 100 nM
fraction unbound [3]: 0.06
Papp A→B at 5 µM [4]: 1.29 ×10⁻⁶ cm/s
CLint scaled [5]: 19 mL/min/kg
IC50 [6]: 23 nM
Papp B→A at 5 µM [7]: 57 ×10⁻⁶ cm/s
t1/2 [8]: 42 min
half-life [9]: 67 min
Papp A→B at 5 µM [10]: 0.45 ×10⁻⁶ cm/s
Papp B→A at 5 µM [11]: 54 ×10⁻⁶ cm/s
solubility [12]: 173 µM (≈ 66.5 µg/mL)

CCn1c(=O)[nH]c(=O)c2c1nc(Cc1cn3cc(Cl)sc3n1)n2Cc1ccc(-c2ccn(C)n2)cc1
fraction unbound [1]: 0.11
fraction unbound [3]: 0.11
Papp A→B at 5 µM [4]: 4.9 ×10⁻⁶ cm/s
CLint scaled [5]: 174 mL/min/kg
solubility [13]: < 10 µM
Papp B→A at 5 µM [7]: 59.9 ×10⁻⁶ cm/s
half-life [8]: 8 min
solubility [14]: < 10 µM
half-life [9]: 40 min
CLint scaled [15]: 854 mL/min/kg
solubility [12]: < 10 µM

CCn1c(=O)[nH]c(=O)c2c1nc(Cc1cn3ccccc3n1)n2Cc1ccc(-c2ccn(C)n2)cc1
fraction unbound [1]: 0.29
fraction unbound [3]: 0.39
Papp A→B at 5 µM [4]: 2.3 ×10⁻⁶ cm/s
CLint scaled [5]: < 115 mL/min/kg
solubility [13]: > 200 µM
Papp B→A at 5 µM [7]: 46.3 ×10⁻⁶ cm/s
half-life [8]: 19 min
solubility [14]: > 200 µM
half-life [9]: > 60 min
CLint scaled [15]: 367 mL/min/kg
solubility [12]: > 200 µM

CCn1c(=O)[nH]c(=O)c2c1nc(Cc1cn3c(n1)CCCC3)n2Cc1cccc(C(=O)NC[C@H](N)C(=O)O)c1
IC50 [2]: 1670 nM
IC50 [6]: 176 nM

CCn1c(=O)[nH]c(=O)c2c1nc(Cc1cn3cc(C)sc3n1)n2CC1CCN(C)CC1
IC50 [2]: > 10000 nM
IC50 [6]: > 10000 nM

CCn1c(=O)[nH]c(=O)c2c1nc(Cc1cn3c(n1)CCCC3)n2Cc1cccc(C(=O)O)c1
IC50 [2]: 3270 nM
IC50 [6]: 307 nM

CCn1c(=O)[nH]c(=O)c2c1nc(Cc1cn3cc(C)sc3n1)n2CC1CCNCC1
IC50 [2]: > 10000 nM
IC50 [6]: > 10000 nM

CCn1c(=O)[nH]c(=O)c2c1nc(Cc1cn3cc(C)sc3n1)n2CC=C(C)C
IC50 [2]: 81 nM
IC50 [6]: 32 nM

CCn1c(=O)[nH]c(=O)c2c1nc(Cc1cn3cc(C)sc3n1)n2CCCC(=O)O
IC50 [2]: 690 nM
IC50 [6]: 69 nM

CCn1c(=O)[nH]c(=O)c2c1nc(Cc1cn3cc(C)sc3n1)n2CC1CCC1
IC50 [2]: 47 nM
IC50 [6]: 31 nM

CCn1c(=O)[nH]c(=O)c2c1nc(Cc1cn3cc(Cl)sc3n1)n2Cc1ccccc1
fraction unbound [1]: 0.25
fraction unbound [3]: 0.23
Papp A→B at 5 µM [4]: 29.4 ×10⁻⁶ cm/s
CLint scaled [5]: < 115 mL/min/kg
solubility [13]: 198 µM (≈ 87.1 µg/mL)
Papp B→A at 5 µM [7]: 47.7 ×10⁻⁶ cm/s
half-life [8]: > 60 min
solubility [14]: 12.7 µM (≈ 5.6 µg/mL)
half-life [9]: > 60 min
CLint scaled [15]: < 115 mL/min/kg
solubility [12]: 3.7 µM (≈ 1.63 µg/mL)

CCn1c(=O)[nH]c(=O)c2c1nc(Cc1cn3cc(C)sc3n1)n2Cc1cccc(C)n1
IC50 [2]: 196 nM
IC50 [6]: 24 nM

CCn1c(=O)[nH]c(=O)c2c1nc(Cc1cn3cc(C)sc3n1)n2Cc1cccc(C(=O)OC)c1
IC50 [2]: 66 nM
IC50 [6]: 22 nM

CCc1nc(C)ccc1OCC(=O)N1CCc2nc3n(c2C1c1ccc(Cl)cc1F)CCCC3 (racemic)
IC50 [2]: 151 nM
IC50 [6]: 51 nM

CCOC(=O)CCCn1c(Cc2cn3cc(C)sc3n2)nc2c1c(=O)[nH]c(=O)n2CC
IC50 [2]: 107 nM
IC50 [6]: 26 nM

CCn1c(=O)[nH]c(=O)c2c1nc(Cc1cn3cc(C)sc3n1)n2CCC(=O)OC
IC50 [2]: 533 nM
IC50 [6]: 57 nM

CCn1c(=O)[nH]c(=O)c2c1nc(Cc1cn3cc(C)sc3n1)n2Cc1ccc(C(F)(F)F)cc1
IC50 [2]: 271 nM
IC50 [6]: 52 nM

CCn1c(=O)[nH]c(=O)c2c1nc(Cc1cn3c(n1)CCCC3)n2Cc1cccc(C(=O)NC[C@H](NC(=O)OCc2ccccc2)C(=O)OC)c1
IC50 [2]: 380 nM
IC50 [6]: 63 nM

CCn1c(=O)[nH]c(=O)c2c1nc(Cc1cn3cc(C)sc3n1)n2Cc1cccc(C(=O)O)c1
IC50 [2]: 357 nM
IC50 [6]: 58 nM

CCn1c(=O)[nH]c(=O)c2c1nc(Cc1cn3c(n1)CCCC3)n2Cc1ccccc1
fraction unbound [1]: 0.82
fraction unbound [3]: 0.85
Papp A→B at 5 µM [4]: 9.3 ×10⁻⁶ cm/s
CLint scaled [5]: < 115 mL/min/kg
solubility [13]: 188 µM (≈ 75.8 µg/mL)
Papp B→A at 5 µM [7]: 5.7 ×10⁻⁶ cm/s
half-life [8]: > 60 min
solubility [14]: > 200 µM
half-life [9]: > 60 min
CLint scaled [15]: < 115 mL/min/kg
solubility [12]: > 200 µM

CCOC(=O)Cn1c(Cc2cn3cc(C)sc3n2)nc2c1c(=O)[nH]c(=O)n2CC
IC50 [2]: 300 nM
IC50 [6]: 37 nM

CCn1c(=O)[nH]c(=O)c2c1nc(Cc1cn3c(n1)CCCC3)n2Cc1cccc(C(=O)OC)c1
IC50 [2]: 243 nM
IC50 [6]: 25 nM

CCn1c(=O)[nH]c(=O)c2c1nc(Cc1cn3cc(C)sc3n1)n2CC1CCCCC1
IC50 [2]: 394 nM
IC50 [6]: 152 nM

CCn1c(=O)[nH]c(=O)c2c1nc(Cc1cn3cc(C)sc3n1)n2Cc1ccccc1
fraction unbound [1]: 0.21
fraction unbound [3]: 0.24
Papp A→B at 5 µM [4]: 24.7 ×10⁻⁶ cm/s
CLint scaled [5]: 315 mL/min/kg
solubility [13]: 177 µM (≈ 74.4 µg/mL)
Papp B→A at 5 µM [7]: 53.9 ×10⁻⁶ cm/s
half-life [8]: 13 min
solubility [14]: 48.5 µM (≈ 20.4 µg/mL)
half-life [9]: 22 min
CLint scaled [15]: 514 mL/min/kg
solubility [12]: 35.1 µM (≈ 14.8 µg/mL)

CCn1c(=O)[nH]c(=O)c2c1nc(Cc1cn3cc(Cl)sc3n1)n2CC1COC1
fraction unbound [1]: 0.5
IC50 [2]: 118 nM
fraction unbound [3]: 0.38
Activity [16]: < 1%
Papp A→B at 5 µM [4]: 0.26 ×10⁻⁶ cm/s
CLint scaled [5]: < 8.6 mL/min/kg
Activity [17]: < 1%
IC50 [6]: 37 nM
Papp B→A at 5 µM [7]: 29 ×10⁻⁶ cm/s
half-life [8]: > 145 min
half-life [9]: > 145 min
Papp A→B at 5 µM [10]: < 0.64 ×10⁻⁶ cm/s
Papp B→A at 5 µM [11]: 30 ×10⁻⁶ cm/s
CLint scaled [15]: < 17 mL/min/kg
solubility [12]: 200 µM (≈ 84.2 µg/mL)

CCn1c(=O)[nH]c(=O)c2c1nc(Cc1cn3cc(C)sc3n1)n2CC1CCN(C(C)C)CC1
IC50 [2]: > 10000 nM
IC50 [6]: > 10000 nM

CCn1c(=O)[nH]c(=O)c2c1nc(Cc1cn3cc(C)sc3n1)n2CCC=C(C)C
IC50 [2]: 676 nM
IC50 [6]: 116 nM

CCn1c(=O)[nH]c(=O)c2c1nc(Cc1cn3c(n1)CCCC3)n2CC1CCC1
IC50 [2]: 394 nM
IC50 [6]: 32 nM

CCn1c(=O)[nH]c(=O)c2c1nc(Cc1cn3cc(C)sc3n1)n2Cc1cccc(C(F)(F)F)c1
IC50 [2]: 157 nM
IC50 [6]: 41 nM

CCn1c(=O)[nH]c(=O)c2c1nc(Cc1cn3cc(C)sc3n1)n2CCCOC
IC50 [2]: 343 nM
IC50 [6]: 38 nM

CCn1c(=O)[nH]c(=O)c2c1nc(Cc1cn3cc(C)sc3n1)n2Cc1cc(C)cc(C)c1
IC50 [2]: 113 nM
IC50 [6]: 34 nM

CCn1c(=O)[nH]c(=O)c2c1nc(Cc1cn3c(n1)CCCC3)n2Cc1cccc(C(=O)NC[C@H](N)C(=O)OC)c1
IC50 [2]: 880 nM
IC50 [6]: 58 nM

CCn1c(=O)[nH]c(=O)c2c1nc(Cc1cn3cc(C)sc3n1)n2Cc1ccccn1
IC50 [2]: 84 nM
IC50 [6]: 18 nM

CCn1c(=O)[nH]c(=O)c2c1nc(Cc1cn3cc(C)sc3n1)n2CC(=O)O
IC50 [2]: > 10000 nM
IC50 [6]: > 10000 nM

CCn1c(=O)[nH]c(=O)c2c1nc(Cc1cn3c(n1)CCCC3)n2CC1COC1
IC50 [2]: 772 nM
IC50 [6]: 57 nM

CCn1c(=O)[nH]c(=O)c2c1nc(Cc1cn3cc(C)sc3n1)n2C(C)C
IC50 [2]: 228 nM
IC50 [6]: 24 nM
